Test results from ChEMBL document CHEMBL4715853 (J Med Chem, 2020).
Converted amounts (≈) assume the structure as drawn.

Experiments:
[1] = Inhibition of SARS Coronavirus helicase expressed in Escherichia coli assessed as reduction in ATP hydrolysis preincubated for 5 mins followed by ATP and circular ssDNA M13 addition and measured after 10 mins by malachite green and ammonium molybdate reagent based assay; set-up: species or system Severe acute respiratory syndrome-related coronavirus
[2] = Inhibition of SARS Coronavirus helicase expressed in Escherichia coli assessed as reduction in dsDNA unwinding activity by FRET assay; set-up: species or system Severe acute respiratory syndrome-related coronavirus
Human coronavirus 229E [3] = experiment: Antiviral activity against HCoV-229E infected in human MRC-5 cells incubated for 96 hrs by XTT assay; format: functional, organism-based; conditions: MRC5, 96 h
[4] = Cytotoxicity against human MRC5 cells incubated for 96 hrs by XTT assay; format: cell-based
[5] = Selectivity ratio of CC50 for human MRC5 cells to EC50 for HCoV-229E infected in human MRC5 cells; format: toxicity, cell-based; conditions: read-out: Ratio CC50/EC50
[6] = Cytotoxicity against African green monkey Vero E6 cells by the CCK8 assay; format: cell-based, Vero C1008; conditions: chlorocebus sabaeus
Human coronavirus OC43 [7] = experiment: Antiviral activity against wild type HCoV-OC43 infected in human Huh-7 cells preincubated for 1 hrs followed by overlaying with reduced-serum Medium and measured after 72 hrs ELISpot assay; format: functional, cell-based; conditions: Betacoronavirus 1, Huh-7
[8] = Cytotoxicity against human Huh-7 cells by CellTiter-Glo assay; format: cell-based
Human coronavirus 229E [9] = experiment: Antiviral activity against HCoV-229E infected in human Huh7 cells assessed as reduction in virus induced cytopathic effect incubated for 6 days by cellTiter-Glo assay; format: functional, organism-based; conditions: Huh-7, 144 h
Huh-7 = experiment: Cytotoxicity against human Huh7 cells incubated for 6 days by cellTiter-Glo assay; format: functional; conditions: Huh-7, 144 h, time 6 day
SARS-CoV [10] = experiment: Antiviral activity against SARS-CoV expressing green fluorescent protein infected in human airway epithelial cells incubated for 48 hrs by RT-PCR method; format: functional, organism-based; conditions: Severe acute respiratory syndrome-related coronavirus, HAE
[11] = Cytotoxicity against HAE cells by CellTiter-Glo assay; format: cell-based; conditions: human
[12] = Inhibition of SARS Coronavirus helicase pp1ab domain assessed as reduction in ATPase activity by phosphomolybdate-malachite green assay; set-up: species or system Severe acute respiratory syndrome-related coronavirus
[13] = Inhibition of SARS Coronavirus helicase pp1ab domain assessed as reduction in helicase activity using DT20Cy3/Release BHQ oligomers by FRET-based assay; set-up: species or system Severe acute respiratory syndrome-related coronavirus
SARS-CoV [14] = experiment: Antiviral activity against SARS-CoV by cell-based assay; format: functional; conditions: Severe acute respiratory syndrome-related coronavirus
Human coronavirus OC43 [15] = experiment: Antiviral activity against wild type HCoV-OC43 infected in BHK-21 cells incubated for 72 hrs by RT-PCR method; format: functional, cell-based; conditions: Betacoronavirus 1, BHK-21, 72 h
[16] = Antiviral activity against HCoV-NL63 infected in Rhesus macaque LLC-MK2 cells incubated for 72 hrs by RT-PCR method; format: functional, cell-based; conditions: Human coronavirus NL63, LLC-MK2, 72 h
in vitro [17] = conditions: hamster, BHK-21 cells
in vitro [18] = conditions: hamster, BHK-21 cells; remark: listed apart in the source
in vitro [19] = conditions: rhesus monkey, LLC-MK2 cells
in vitro [20] = conditions: rhesus monkey, LLC-MK2 cells; remark: listed apart in the source
[21] = Selectivity index, ratio of CC50 for African green monkey Vero E6 cells to EC50 for SARS-CoV infected in African green monkey Vero E6 cells; format: toxicity, Vero C1008; conditions: read-out: Ratio CC50/EC50
[22] = Cytotoxicity against African green monkey Vero E6 cells incubated for 2 days by the MTS assay; format: cell-based, Vero C1008; conditions: chlorocebus sabaeus, time 2 day
SARS-CoV [23] = experiment: Antiviral activity against SARS-CoV infected in African green monkey Vero E6 cells assessed as reduction in viral replication by ELISA; format: functional, organism-based; conditions: Severe acute respiratory syndrome-related coronavirus, Vero C1008
SARS-CoV [24] = experiment: Antiviral activity against SARS-CoV FFM1 infected in African green monkey Vero cells assessed as reduction in virus induced cytopathic effect treated twice for 7 days; format: functional, organism-based; conditions: Severe acute respiratory syndrome-related coronavirus, 168 h
SARS-CoV [25] = experiment: Antiviral activity against SARS-CoV FFM2 infected in African green monkey Vero cells assessed as reduction in virus induced cytopathic effect treated twice for 7 days; format: functional, organism-based; conditions: Severe acute respiratory syndrome-related coronavirus, 168 h
[26] = Selectivity ratio of CC50 for African green monkey Vero cells to EC50 for SARS-CoV FFM1 infected in African green monkey Vero cells; format: toxicity; conditions: read-out: Ratio CC50/EC50
[27] = Selectivity ratio of CC50 for African green monkey Vero cells to EC50 for SARS-CoV FFM2 infected in African green monkey Vero cells; format: toxicity; conditions: read-out: Ratio CC50/EC50
SARS-CoV-2 = experiment: Antiviral activity against SARS-CoV-2 infected in African green monkey Vero cells incubated for 48 hrs by RT-PCR method; format: functional, organism-based; conditions: Severe acute respiratory syndrome coronavirus 2, Vero

`NS(=O)(=O)c1ccc(NC(=O)/C=C/c2ccco2)cc1` gave an IC50 [1] of 2.09 µM and an IC50 [2] of 13.2 µM.

`C[C@H]1O[C@@H](O[C@H]2CC[C@@]3(C)[C@@H](CC[C@]4(C)[C@@H]3C=CC3=C5CC(C)(C)CC[C@]5(CO)[C@H](O)C[C@]34C)[C@]2(C)CO)[C@H](O)[C@@H](O[C@@H]2O[C@H](CO)[C@@H](O)[C@H](O)[C@H]2O)[C@H]1O` gave an EC50 (Human coronavirus 229E [3]) of 1700 nM, a CC50 at 96 h [4] of 383 µM and a selectivity ratio [5] of 222.

In the case of `CCC(CC)COC(=O)[C@H](C)N[P@](=O)(OC[C@H]1O[C@@](C#N)(c2ccc3c(N)ncnn23)[C@H](O)[C@@H]1O)Oc1ccccc1`, the CC50 [6] is reported as 100 µM, the EC50 (Human coronavirus OC43 [7]) is reported as 150 nM and the CC50 [8] is reported as over 10 µM. For the same compound, the EC50 (Human coronavirus 229E [9]) was 24 nM, the CC50 (Huh-7) was over 10 µM and the EC50 (SARS-CoV [10]) was 60 nM. For the same compound, the CC50 [11] was over 10 µM.

`CCn1c(S)nc2c1c(=O)[nH]c(=O)n2C` gave an IC50 [1] of 8.66 µM and an IC50 [2] of 41.6 µM.

`COc1cc(CC(C)c2nc(C)c(O)c(C34OC5(O)CC(O)(CC(O)(C5)O3)O4)c2CO)ccc1O` (stereo not given) gave an IC50 [12] of 2800 nM and an IC50 [13] of 5.4 µM.

Compound `COc1cc(C23OC4(O)CC(O)(CC(O)(C4)O2)O3)ccc1O` has an IC50 [12] of 680 nM and an IC50 [13] of 2.7 µM.

`Cc1nc(I)c(C(=O)O)c(C23OC4(O)CC(O)(CC(O)(C4)O2)O3)c1O` showed an IC50 [12] of 540 nM and an IC50 [13] of 7 µM.

`C[C@@H]1O[C@@H](O[C@H]2[C@H](O[C@H]3CC[C@@]4(C)[C@@H](CC[C@]5(C)[C@@H]4CC=C4[C@@H]6CC(C)(C)CC[C@]6(C(=O)O)CC[C@]45C)[C@]3(C)CO)OC[C@H](O)[C@@H]2O)[C@H](O)[C@H](O)[C@H]1O` [ALPHA-HEDERIN] showed an MIC (SARS-CoV [14]) of 10 µM (≈ 7.51 µg/mL).

In the case of `CC[C@H]1CN2CCc3cc(OC)c(OC)cc3[C@@H]2C[C@@H]1C[C@H]1NCCc2cc(OC)c(OC)cc21` [EMETINE], the EC50 (Human coronavirus OC43 [15]) is reported as 300 nM, the EC50 [16] is reported as 1430 nM and the CC50 at 72 h (in vitro [17]) is reported as 2690 nM. The selectivity ratio (in vitro [18]) was 9, the CC50 at 72 h (in vitro [19]) was 3.63 µM and the selectivity ratio (in vitro [20]) was 2.5.

`C/C=C(\C)C(=O)O[C@H]1[C@H](OC(C)=O)[C@]2(CO)[C@H](O)C[C@]3(C)C(=CC[C@@H]4[C@@]5(C)CC[C@H](O[C@@H]6O[C@H](C(=O)O)[C@@H](O[C@@H]7O[C@H](CO)[C@@H](O)[C@H](O)[C@H]7O)[C@H](O)[C@H]6O[C@@H]6O[C@H](CO)[C@@H](O)[C@H](O)[C@H]6O)[C@](C)(CO)[C@@H]5CC[C@]43C)[C@@H]2CC1(C)C` [ESCIN IA] gave a selectivity ratio [21] of 2.5, a CC50 at 48 h [22] of 25 µM and an IC50 (SARS-CoV [23]) of 6 µM.

Work on `CC1(C)[C@@H](O[C@H]2O[C@H](C(=O)O)[C@@H](O)[C@H](O)[C@H]2O[C@@H]2O[C@H](C(=O)O)[C@@H](O)[C@H](O)[C@H]2O)CC[C@]2(C)[C@H]3C(=O)C=C4[C@@H]5C[C@@](C)(C(=O)O)CC[C@]5(C)CC[C@@]4(C)[C@]3(C)CC[C@@H]12` [GLYCYRRHIZIN] yielded an EC50 (SARS-CoV [24]) of 365 µM, an EC50 (SARS-CoV [25]) of 365 µM and a selectivity ratio [26] of 66. For the same compound, the selectivity ratio [27] was 66.

In the case of `CCN(CCO)CCCC(C)Nc1ccnc2cc(Cl)ccc12` (stereo not given) [HYDROXYCHLOROQUINE], the IC50 (SARS-CoV-2) is reported as 720 nM.
